The text below walks through data of ChEMBL document CHEMBL5465560, “Selectivity Literature for EUbOPEN Chemogenomic Library” (2024).

Experiment [1] addresses BDNF/NT-3 growth factors receptor (Homo sapiens) (UniProt Q16620). Kind of experiment: Selectivity interaction (KinomeScan (DiscoverX)) EUB0000595a NTRK2. Particulars: at 10 µM.
Experiment [2] deals with T1, Mitogen-activated protein kinase kinase kinase 7 (Homo sapiens) (UniProt O43318).
T1 sequence (whole entry): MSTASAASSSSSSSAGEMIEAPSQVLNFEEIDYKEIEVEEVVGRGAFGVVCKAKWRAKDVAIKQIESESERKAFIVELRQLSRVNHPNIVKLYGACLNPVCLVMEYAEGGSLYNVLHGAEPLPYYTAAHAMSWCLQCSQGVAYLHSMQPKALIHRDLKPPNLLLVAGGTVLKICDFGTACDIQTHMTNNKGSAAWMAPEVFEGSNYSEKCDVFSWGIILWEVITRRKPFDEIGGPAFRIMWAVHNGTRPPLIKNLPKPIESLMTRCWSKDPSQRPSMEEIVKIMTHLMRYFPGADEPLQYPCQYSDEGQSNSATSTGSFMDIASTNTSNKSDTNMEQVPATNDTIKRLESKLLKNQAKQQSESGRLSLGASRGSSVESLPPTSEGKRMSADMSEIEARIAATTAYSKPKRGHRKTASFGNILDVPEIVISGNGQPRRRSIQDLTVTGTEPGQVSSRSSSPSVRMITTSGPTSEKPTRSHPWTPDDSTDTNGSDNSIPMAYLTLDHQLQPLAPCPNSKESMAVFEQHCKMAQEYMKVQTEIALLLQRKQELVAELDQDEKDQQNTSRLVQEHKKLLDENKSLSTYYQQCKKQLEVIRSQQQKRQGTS
Put plainly: Selectivity interaction (KinomeScan (DiscoverX)) EUB0000666a MAP3K7. Particulars: at 10 µM.

In experiment [3] the target is Serine/threonine-protein kinase 25 (Homo sapiens) (UniProt O00506). Kind of experiment: Selectivity interaction (KinomeScan (DiscoverX)) EUB0000666a STK25. The following applies: at 10 µM.
The target of experiment [4] is Serine/threonine-protein kinase SBK1 (Homo sapiens) (UniProt Q52WX2). Kind of experiment: Selectivity interaction (Ambit KINOMEscan and KiNATiv profiling in Jurkat cells) EUB0000090b SBK1. The format is cell-based. The following applies: at 1 µM.
The target in experiment [5] is Serine/threonine-protein kinase SIK1 (Homo sapiens) (UniProt P57059). Kind of experiment: Selectivity interaction (KinomeScan (DiscoverX)) EUB0001049a SIK1. The following applies: at 1 µM.
Experiment [6] addresses T2, Protein kinase C epsilon type (Homo sapiens) (UniProt Q02156).
T2 sequence (whole entry): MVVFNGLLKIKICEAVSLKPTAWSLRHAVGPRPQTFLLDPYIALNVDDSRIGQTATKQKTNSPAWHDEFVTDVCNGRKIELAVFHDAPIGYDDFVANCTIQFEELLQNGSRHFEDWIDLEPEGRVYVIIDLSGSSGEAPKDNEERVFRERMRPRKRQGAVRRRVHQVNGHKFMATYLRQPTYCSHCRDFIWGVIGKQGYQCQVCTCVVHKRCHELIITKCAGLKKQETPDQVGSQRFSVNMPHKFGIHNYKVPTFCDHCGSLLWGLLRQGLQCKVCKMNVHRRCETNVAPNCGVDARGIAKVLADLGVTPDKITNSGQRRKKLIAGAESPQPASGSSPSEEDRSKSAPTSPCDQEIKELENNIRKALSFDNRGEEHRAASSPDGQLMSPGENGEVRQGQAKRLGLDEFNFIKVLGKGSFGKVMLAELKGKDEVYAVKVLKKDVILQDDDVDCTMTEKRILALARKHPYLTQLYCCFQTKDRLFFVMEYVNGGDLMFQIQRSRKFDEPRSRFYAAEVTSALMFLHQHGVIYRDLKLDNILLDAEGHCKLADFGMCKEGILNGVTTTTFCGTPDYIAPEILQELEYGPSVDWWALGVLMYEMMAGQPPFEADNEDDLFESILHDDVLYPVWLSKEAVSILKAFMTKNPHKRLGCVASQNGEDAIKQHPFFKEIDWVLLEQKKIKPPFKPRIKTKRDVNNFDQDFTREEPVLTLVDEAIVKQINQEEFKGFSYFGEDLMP
Kind of experiment: Selectivity interaction (KinomeScan (DiscoverX)) EUB0001079a PRKCE. Particulars: at 1 µM.

For experiment [7], the target named is T3, Megakaryocyte-associated tyrosine-protein kinase (Homo sapiens) (UniProt P42679).
T3 sequence (whole entry): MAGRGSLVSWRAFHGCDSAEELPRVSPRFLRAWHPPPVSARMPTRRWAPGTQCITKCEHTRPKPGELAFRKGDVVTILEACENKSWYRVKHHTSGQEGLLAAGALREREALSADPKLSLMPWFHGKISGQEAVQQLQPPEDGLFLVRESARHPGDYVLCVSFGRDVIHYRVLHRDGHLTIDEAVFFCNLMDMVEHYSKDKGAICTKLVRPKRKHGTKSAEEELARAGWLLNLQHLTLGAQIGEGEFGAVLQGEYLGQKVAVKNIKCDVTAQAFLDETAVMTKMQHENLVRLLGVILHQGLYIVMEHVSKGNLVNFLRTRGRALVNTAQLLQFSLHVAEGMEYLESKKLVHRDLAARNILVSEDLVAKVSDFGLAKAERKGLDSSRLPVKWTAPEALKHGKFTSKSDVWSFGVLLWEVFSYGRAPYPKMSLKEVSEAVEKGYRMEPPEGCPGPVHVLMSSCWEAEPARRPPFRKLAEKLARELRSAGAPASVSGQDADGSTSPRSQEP
Kind of experiment: Selectivity interaction (KinomeScan (DiscoverX)) EUB0000229b MATK. The following applies: at 10 µM.

Sequence of BDNF/NT-3 growth factors receptor (Homo sapiens) (Q16620 32-822 limits assumed): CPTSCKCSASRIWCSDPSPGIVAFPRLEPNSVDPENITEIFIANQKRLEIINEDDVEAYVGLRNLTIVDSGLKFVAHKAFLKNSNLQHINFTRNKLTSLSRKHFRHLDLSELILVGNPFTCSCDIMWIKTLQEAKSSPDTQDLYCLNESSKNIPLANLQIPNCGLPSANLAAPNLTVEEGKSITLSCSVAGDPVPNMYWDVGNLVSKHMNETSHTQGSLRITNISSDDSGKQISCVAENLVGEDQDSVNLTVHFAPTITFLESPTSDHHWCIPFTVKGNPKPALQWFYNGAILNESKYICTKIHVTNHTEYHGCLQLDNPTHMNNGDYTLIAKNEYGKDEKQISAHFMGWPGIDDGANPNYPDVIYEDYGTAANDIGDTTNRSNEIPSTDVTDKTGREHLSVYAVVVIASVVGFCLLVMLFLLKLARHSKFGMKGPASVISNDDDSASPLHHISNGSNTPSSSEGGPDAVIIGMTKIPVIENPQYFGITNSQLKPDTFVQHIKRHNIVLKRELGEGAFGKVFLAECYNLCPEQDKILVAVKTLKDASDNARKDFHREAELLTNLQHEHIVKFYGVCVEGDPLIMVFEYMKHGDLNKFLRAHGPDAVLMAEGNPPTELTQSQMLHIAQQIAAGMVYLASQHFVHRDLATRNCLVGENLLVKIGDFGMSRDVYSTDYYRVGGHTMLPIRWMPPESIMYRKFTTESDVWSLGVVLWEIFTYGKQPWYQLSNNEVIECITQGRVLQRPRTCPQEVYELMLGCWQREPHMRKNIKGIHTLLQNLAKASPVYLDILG
Sequence of Serine/threonine-protein kinase SIK1 (Homo sapiens) (P57059 whole entry): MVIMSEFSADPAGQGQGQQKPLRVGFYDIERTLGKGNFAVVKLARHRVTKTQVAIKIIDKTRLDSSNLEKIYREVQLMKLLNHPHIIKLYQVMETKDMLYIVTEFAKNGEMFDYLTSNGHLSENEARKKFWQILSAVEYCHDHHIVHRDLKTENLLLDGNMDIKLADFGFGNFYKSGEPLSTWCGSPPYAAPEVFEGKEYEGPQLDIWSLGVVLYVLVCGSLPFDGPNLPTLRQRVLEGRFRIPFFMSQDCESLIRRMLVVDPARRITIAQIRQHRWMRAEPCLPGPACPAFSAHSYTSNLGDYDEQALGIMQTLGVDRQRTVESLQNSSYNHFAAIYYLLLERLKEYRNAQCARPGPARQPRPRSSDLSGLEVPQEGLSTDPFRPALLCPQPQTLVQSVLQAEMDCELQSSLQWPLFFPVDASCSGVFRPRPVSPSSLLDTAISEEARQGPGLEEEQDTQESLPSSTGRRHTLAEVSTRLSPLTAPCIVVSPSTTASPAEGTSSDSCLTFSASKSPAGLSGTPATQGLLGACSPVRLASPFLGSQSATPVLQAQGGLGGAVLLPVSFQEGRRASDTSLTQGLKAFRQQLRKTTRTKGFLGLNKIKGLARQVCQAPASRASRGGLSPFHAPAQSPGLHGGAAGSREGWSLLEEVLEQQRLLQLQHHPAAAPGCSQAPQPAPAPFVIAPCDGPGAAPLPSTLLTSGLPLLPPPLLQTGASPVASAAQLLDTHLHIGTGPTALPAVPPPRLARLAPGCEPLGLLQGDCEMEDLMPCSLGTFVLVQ
Sequence of Serine/threonine-protein kinase 25 (Homo sapiens) (O00506 whole entry, looked up): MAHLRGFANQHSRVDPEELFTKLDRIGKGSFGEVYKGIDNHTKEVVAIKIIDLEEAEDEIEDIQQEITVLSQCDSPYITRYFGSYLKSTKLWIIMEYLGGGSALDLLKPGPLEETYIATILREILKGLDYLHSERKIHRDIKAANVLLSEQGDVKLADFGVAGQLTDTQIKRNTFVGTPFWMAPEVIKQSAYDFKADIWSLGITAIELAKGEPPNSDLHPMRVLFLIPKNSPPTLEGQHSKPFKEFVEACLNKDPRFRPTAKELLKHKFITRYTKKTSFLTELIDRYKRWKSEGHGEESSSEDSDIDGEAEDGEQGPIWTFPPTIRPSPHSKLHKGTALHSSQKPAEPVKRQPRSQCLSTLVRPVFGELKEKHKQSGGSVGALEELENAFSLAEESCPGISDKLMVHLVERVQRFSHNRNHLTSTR
Sequence of Serine/threonine-protein kinase SBK1 (Homo sapiens) (Q52WX2 whole entry): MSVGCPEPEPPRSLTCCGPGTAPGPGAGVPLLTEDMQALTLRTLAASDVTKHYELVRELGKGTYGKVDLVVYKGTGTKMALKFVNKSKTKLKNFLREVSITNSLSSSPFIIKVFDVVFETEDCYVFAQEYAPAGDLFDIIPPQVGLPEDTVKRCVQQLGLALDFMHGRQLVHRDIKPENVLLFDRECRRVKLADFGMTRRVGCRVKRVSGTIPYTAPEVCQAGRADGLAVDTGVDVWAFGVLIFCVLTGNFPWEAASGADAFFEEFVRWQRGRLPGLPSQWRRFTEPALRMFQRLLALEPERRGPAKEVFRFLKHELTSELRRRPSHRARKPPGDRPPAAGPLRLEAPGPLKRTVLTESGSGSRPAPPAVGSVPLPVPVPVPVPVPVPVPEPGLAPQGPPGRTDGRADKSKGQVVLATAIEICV

Take `COCC(=O)NC/C=C/c1ccc2ncnc(Nc3ccc(Oc4ccc(C)nc4)c(C)c3)c2c1` [CP-724714]: the % of control in experiment [1] stood at 100%.
For the molecule `O=C(NOC[C@H](O)CO)c1ccc(F)c(F)c1Nc1ccc(I)cc1F`, the % of control in experiment [2] came to 75%; in experiment [3] it was 91%.
In turn, `CN(C)C/C=C/C(=O)Nc1ccc(C(=O)N2CCCC(Nc3ncc(Cl)c(-c4c[nH]c5ccccc45)n3)C2)cc1` (configuration not stated) returned a % of control in experiment [4] of 100%.
The molecule `COc1cc(Nc2nc(C)cc(-c3cnn4nc(OC)ccc34)n2)cc(C(F)(F)F)c1` came in with a % of control in experiment [5] of 93%.
As for `Nc1cnc(N2CCc3cc(S(=O)(=O)Nc4c(F)cc(Cl)cc4F)cc(N4CCCC4=O)c32)nc1` [TP-020n], the % of control in experiment [6] is 100%.
As to `COc1cc(N(C)c2ccnc3ccc(C(F)(F)F)cc23)cc(OC)c1OC`, the % binding in experiment [7] is 81%.
